From patent US9456601B2, “Pesticides based on vicinal diols” (priority 2001, dated 2016)
Like-named read-outs stand apart in the source and are kept apart here.

Tests used:
[1] = tested on: human body louse (Pediculus humanus); conditions: in vivo
[2] = tested on: human body louse (Pediculus humanus); assay: LC50 tests against the human body louse; conditions: for Potency index: LC50 value compared with that of 1,2-decanediol (=100%); for LC50: read-out: LC50 value; for LC50 / LC50 value: tests against lice (Pediculus humanus)
[3] = tested on: house dust mite Dermatophagoides pteronyssinus; assay: House dust mite immersion test, mortality; type: in vivo
Text: The utility of the vicinal diols is further illustrated by the results of experiments against the house dust mite Dermatophagoides pteronyssinus according to accepted industry protocols. Mites were sealed in a cotton envelope and briefly immersed (5 seconds) in dilute solutions (2.5%) of selected diols. The mites were examined one hour after immersion and mortality calculated. The results are shown in Table 3 below with comparative results for a proprietary carpet shampoo, permethrin insecticide and water (as controls).

lice [4] = assay: Immersion of lice in test formulations, mortality; type: in vivo; conditions: immersed for a few seconds and blotted dry
Text: (§1) Vicinal diols are readily formulated in aqueous systems using non-toxic co-solvents such as isopropyl alcohol or by use of surfactants such as Tween®. This makes them eminently suitable for inclusion into many household or industrial, pesticidal or cleansing products. In particular they can be incorporated into pharmaceutical preparations for use on humans or animals. The treatment of lice and cockroaches with formulations containing 1,2-octanediol or 1,2-decanediol is tabulated in Table 4 along with control results for the solvent systems employed. In a procedure following standard industry protocols the subject animals were immersed for a few seconds in the test formulations and blotted dry. Mortality after 24 hrs was measured for the lice, after 1 hr for the cockroaches.

cockroaches = assay: Immersion of cockroaches in test formulations, mortality; type: in vivo; conditions: immersed for a few seconds and blotted dry
Text: as §1

house flies = type: in vivo, Musca domestica
Text: A further example of the use of the compounds of the present invention is shown by testing decane-1,2-diol against house flies in a standard industry protocol for insecticides.

lice [5] = assay: Egg-laying activity of treated lice; type: in vivo; conditions: FIG. 2
Text: FIG. 2 is a further graph illustrating a relationship between diol chain length and egg-laying activity of treated lice.

Row | Compound | Potency index [2] | LC50 [2] [mM] | LC50 value [2] | also measured
1 | OCCCCCCO [1,6-Hexanediol] | Not effective | – | – | LC50 value [1]: Not calculable
2 | C=CCCCCCCCCO [9-Decene-1-ol] | 36% | 33 | – | –
3 | CCCCC(CC)CO (stereo not drawn) [2-Ethyl-1-hexanol] | 4% | – | – | LC50 value [1]: 300 mmol
4 | CC(O)CCC(C)O (stereo not drawn) [2,5-Hexanediol] | Not effective | – | Not calculable | –
5 | CCCC(O)C(CC)CO (stereo not drawn) [2-Ethyl-1,3-hexanediol] | 20% | – | – | LC50 [1]: 60 mM
6 | CCC(O)CO (stereo not drawn) [1,2-Butanediol] | Not effective | – | >700 mmol | –
7 | CC(O)CCCCO (stereo not drawn) [1,5-Hexanediol] | Not effective | – | Not calculable | –
8 | CCCCCCCCCCO [1-Decanol] | 32% | 35 | – | –
9 | CCCCC(O)CO (stereo not drawn) [1,2-Hexanediol] | 6% | – | >200 mmol | –
10 | CC1(C)C(C=C(Cl)Cl)C1C(=O)OCc1cccc(Oc2ccccc2)c1 (stereo not drawn) [0.25% Permethrin, Permethrin] | – | – | – | Mortality ([3]; mites in cotton envelope immersed 5 seconds, diols as 2.5% solutions, examined one hour after immersion): 100%; Lice mortality after 24 hr (lice [4]): 100%; Cockroach mortality after 1 hr (cockroaches): 100%
11 | CCCCCCCC(CC)CCO (stereo not drawn) [3-Ethyl-1-decanol] | 20% | 62 | – | –
12 | CCCCCC(O)CCO (stereo not drawn) [1,3-Octanediol] | Not effective | – | >400 mmol | –
13 | OCCCCCCCCCCO [decane-1,10-diol] | – | – | – | insecticidal activity (in words) (house flies; house flies): did not exhibit insecticidal activity
14 | CCCC(O)C(O)CO (stereo not drawn) [1,2,3-Hexanetriol] | Not effective | – | Not calculable | –
15 | CCCCCCC(O)CCC (stereo not drawn) [4-Decanol] | 6% | – | 183 mmol | –
16 | CCCCCCCCC(CCCCCCC)C(O)CO (stereo not drawn) [3-Octyl-1,2-decanediol] | 12% | 97 | – | –
17 | CC(O)CCO (stereo not drawn) [1,3-Butanediol] | Not effective | – | >2000 mmol | –
18 | CCCCCCCC(CC)C(O)CO (stereo not drawn) [3-Ethyl-1,2-decanediol] | Not effective | – | Not calculable | –
19 | CCCCCCCC(O)CCO (stereo not drawn) [1,3-Decanediol] | 30% | 40 | – | –
20 | OCCCCC(O)CO (stereo not drawn) [1,2,6-Hexanetriol] | Not effective | – | Not calculable | –
21 | CCCCCCCCC(C)O (stereo not drawn) [2-Decanol] | 34% | 37 | – | –
22 | CCCCCCC(O)CO (stereo not drawn) [1,2-Octanediol] | 30% | 40 | – | Mortality ([3]; in vivo): 65%; prevention of egg laying (in words) (lice [5]): especially efficacious in the prevention of egg laying
23 | CCCCCCCCC(O)CO (racemic) [1,2-Decanediol] | 100% | 12 | – | Mortality ([3]; in vivo): 95%; Mortality (house flies; in vivo): More than 80%; pediculicidal activity (in words) ([2]; against lice): significantly superior to 1,3-decanediol
